Results published in BindingDB's records for patent WO2025049746 (Eikon Therapeutics, 2025).

Legend:
[1] = biological target: Bifunctional 3'-5' exonuclease/ATP-dependent helicase WRN (Homo sapiens, UniProt Q14191); test: ADP-Glo Kinase Assay
Experimental: ATPase activity was measured using the ADP-Glo Kinase Assay following the manufacturers recommended protocol.

[2] = biological target: T1, Bifunctional 3'-5' exonuclease/ATP-dependent helicase WRN [480-1251] (UniProt Q14191); test: Biochemical Activity Assays
T1 construct: 480-1251
T1 sequence (Q14191 480-1251): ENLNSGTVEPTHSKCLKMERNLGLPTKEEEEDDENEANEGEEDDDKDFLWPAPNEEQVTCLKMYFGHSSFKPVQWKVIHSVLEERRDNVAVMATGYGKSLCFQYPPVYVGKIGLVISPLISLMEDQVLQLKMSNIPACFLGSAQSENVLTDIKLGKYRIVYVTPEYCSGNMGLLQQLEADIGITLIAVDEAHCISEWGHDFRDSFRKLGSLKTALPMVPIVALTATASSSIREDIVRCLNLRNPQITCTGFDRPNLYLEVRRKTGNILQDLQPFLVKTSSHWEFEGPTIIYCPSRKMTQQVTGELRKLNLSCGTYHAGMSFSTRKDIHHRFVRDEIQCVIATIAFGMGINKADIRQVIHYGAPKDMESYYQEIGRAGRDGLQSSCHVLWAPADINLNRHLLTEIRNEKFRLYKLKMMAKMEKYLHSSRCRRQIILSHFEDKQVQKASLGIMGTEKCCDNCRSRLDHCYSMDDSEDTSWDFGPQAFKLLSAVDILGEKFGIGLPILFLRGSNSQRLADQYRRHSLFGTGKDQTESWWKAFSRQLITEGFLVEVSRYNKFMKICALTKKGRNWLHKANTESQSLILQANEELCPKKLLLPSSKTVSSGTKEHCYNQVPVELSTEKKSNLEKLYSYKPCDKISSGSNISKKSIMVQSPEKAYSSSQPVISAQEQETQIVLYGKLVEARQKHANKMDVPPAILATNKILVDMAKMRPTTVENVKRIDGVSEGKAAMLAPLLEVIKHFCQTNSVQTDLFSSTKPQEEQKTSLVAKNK

Bifunctional 3'-5' exonuclease/ATP-dependent helicase WRN, sequence (Q14191 whole entry): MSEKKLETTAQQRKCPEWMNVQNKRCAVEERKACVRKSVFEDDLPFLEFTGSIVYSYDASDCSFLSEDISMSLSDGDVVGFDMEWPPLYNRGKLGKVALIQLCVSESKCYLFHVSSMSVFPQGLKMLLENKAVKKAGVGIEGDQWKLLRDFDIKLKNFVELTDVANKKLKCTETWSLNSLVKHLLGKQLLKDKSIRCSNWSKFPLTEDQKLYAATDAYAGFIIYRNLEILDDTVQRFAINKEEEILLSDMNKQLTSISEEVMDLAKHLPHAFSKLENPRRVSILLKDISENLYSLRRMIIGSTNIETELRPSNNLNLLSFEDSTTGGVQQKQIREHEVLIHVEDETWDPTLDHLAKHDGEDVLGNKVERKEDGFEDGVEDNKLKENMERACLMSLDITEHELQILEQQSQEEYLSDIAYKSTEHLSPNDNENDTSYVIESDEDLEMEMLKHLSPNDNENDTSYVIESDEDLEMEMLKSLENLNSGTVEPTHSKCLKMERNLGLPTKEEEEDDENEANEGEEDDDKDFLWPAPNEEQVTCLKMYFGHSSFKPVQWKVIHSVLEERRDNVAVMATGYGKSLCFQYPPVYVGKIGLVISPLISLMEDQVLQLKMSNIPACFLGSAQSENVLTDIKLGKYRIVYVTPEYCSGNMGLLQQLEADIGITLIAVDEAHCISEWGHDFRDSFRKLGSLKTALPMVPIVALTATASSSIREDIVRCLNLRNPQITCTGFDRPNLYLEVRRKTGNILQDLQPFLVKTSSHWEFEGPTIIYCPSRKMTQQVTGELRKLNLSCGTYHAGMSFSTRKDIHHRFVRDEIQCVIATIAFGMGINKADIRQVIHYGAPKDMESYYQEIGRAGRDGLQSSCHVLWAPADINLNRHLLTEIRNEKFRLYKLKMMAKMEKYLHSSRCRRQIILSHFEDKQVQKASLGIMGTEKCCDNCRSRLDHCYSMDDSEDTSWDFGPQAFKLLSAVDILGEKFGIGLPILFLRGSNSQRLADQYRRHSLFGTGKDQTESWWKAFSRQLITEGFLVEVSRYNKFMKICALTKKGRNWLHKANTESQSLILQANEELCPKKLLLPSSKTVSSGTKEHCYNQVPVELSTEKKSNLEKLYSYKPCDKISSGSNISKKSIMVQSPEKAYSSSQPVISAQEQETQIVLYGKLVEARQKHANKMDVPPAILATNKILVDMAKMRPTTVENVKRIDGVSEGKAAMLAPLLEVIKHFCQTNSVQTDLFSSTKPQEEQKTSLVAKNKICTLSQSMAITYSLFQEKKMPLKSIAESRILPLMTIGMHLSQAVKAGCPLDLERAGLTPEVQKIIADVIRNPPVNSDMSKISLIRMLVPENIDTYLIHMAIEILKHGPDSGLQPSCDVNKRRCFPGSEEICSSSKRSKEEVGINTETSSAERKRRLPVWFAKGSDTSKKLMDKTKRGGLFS

Row | Structure (SMILES) | IC50 [1] | IC50 [2]
1 | CCc1c(N2CCN(C(=O)c3ncnc(C)c3O)CC2)c(=O)n2nc(C3=CCOCC3)nc2n1CC(=O)Nc1ccc(OC(F)F)cc1F [WO2025049746, Example 369] | 0.085 µM | 0.077 µM
2 | CCc1c(N2CCN(C(=O)c3ncnc(C)c3O)CC2)c(=O)n2nc(-c3ccc4c(c3)CC(=O)N4C)nc2n1CC(=O)Nc1ccc(C(F)(F)F)cc1Cl [WO2025049746, Example 271] | 0.028 µM | 0.035 µM
3 | CCc1c(N2CCN(C(=O)c3ncnc(C)c3O)CC2)c(=O)n2nc(N3CCC(=C(F)F)CC3)nc2n1CC(=O)Nc1ccc(C(F)(F)F)cc1Cl [WO2025049746, Example 205] | 0.036 µM | 0.027 µM
4 | CCc1c(N2CCN(C(=O)c3ncnc(C)c3O)CC2)c(=O)n2nc(-c3ccn4ncc(F)c4c3)nc2n1CC(=O)Nc1ccc(C(F)(F)F)cc1Cl [WO2025049746, Example 326] | 0.024 µM | 0.026 µM
5 | CCc1c(N2CCN(C(=O)c3ncnc(C)c3O)CC2)c(=O)n2nc(C3=CCOCC3)nc2n1CC(=O)NC1CC2(CC(F)C2)C1 (stereo unspecified) [WO2025049746, Example 372] | 1.83 µM | 1.39 µM
6 | CCc1c(N2CCN(C(=O)c3ncnc(C)c3O)CC2)c(=O)n2nc(-c3ccc4c(c3)COC4)nc2n1CC(=O)Nc1ccc(C(F)(F)F)cc1Cl [WO2025049746, Example 13] | 0.0273 µM | 0.0235 µM
7 | CCc1c(N2CCN(C(=O)c3ncnc(C)c3O)CC2)c(=O)n2nc(-c3ccc4c(c3)COC4)nc2n1CC(=O)Nc1ccc(C(F)(F)F)c2c1CC2 [WO2025049746, Example 376] | 0.036 µM | 0.028 µM
8 | CCc1c(N2CCN(C(=O)c3ncnc(C)c3O)CC2)c(=O)n2nc(-c3ccc4c(c3)CC(C)O4)nc2n1CC(=O)Nc1ccc(C(F)(F)F)cc1Cl (stereo unspecified) [WO2025049746, Example 168] | 0.045 µM | 0.035 µM
9 | CCc1c(N2CCN(C(=O)c3ncnc(C)c3O)CC2)c(=O)n2nc(-c3cc(F)c4c(c3)CCO4)nc2n1CC(=O)Nc1ccc(C(F)(F)F)cc1Cl [WO2025049746, Example 173] | 0.036 µM | 0.028 µM
10 | CCc1c(N2CCN(C(=O)c3ncnc(C)c3O)CC2)c(=O)n2nc(-c3cc(F)c4ncccc4c3F)nc2n1CC(=O)Nc1ccc(C(F)(F)F)cc1Cl [WO2025049746, Example 320] | 0.019 µM | 0.022 µM
11 | CCc1c(N2CCN(C(=O)c3cc(C)c(O)cc3O)CC2)c(=O)n2nc(-c3ccc4c(c3)COC4)nc2n1CC(=O)Nc1ccc(C(F)(F)F)cc1Cl [WO2025049746, Example 413] | 0.386 µM | 0.303 µM
12 | CCc1c(N2CCN(C(=O)/C=C/C(=O)c3ccc(OC)cc3)CC2)c(=O)n2nc(C3=CCOCC3)nc2n1CC(=O)Nc1ccc(C(F)(F)F)cc1Cl [WO2025049746, Example 344] | 0.289 µM | 0.242 µM
13 | CCc1c(N2CCN(C(=O)c3ncnc(C)c3O)CC2)c(=O)n2nc(-c3ccc4nc(C)oc4c3)nc2n1CC(=O)Nc1ccc(C(F)(F)F)cc1Cl [WO2025049746, Example 237] | 0.082 µM | 0.084 µM
14 | CCc1c(N2CC[C@H](C)N(C(=O)c3ncnc(C)c3O)CC2)c(=O)n2nc(C3=CCOCC3)nc2n1CC(=O)Nc1ccc(C(F)(F)F)cc1Cl [WO2025049746, Example 342] | 1.8 µM | 0.42 µM
15 | CCc1c(N2CCN(C(=O)c3ncnc(C)c3O)CC2)c(=O)n2nc(-c3cccc4c3COC4)nc2n1CC(=O)Nc1ccc(C(F)(F)F)cc1Cl [WO2025049746, Example 15] | 0.04 µM | 0.0344 µM
16 | CCc1c(N2CCN(C(=O)c3nc4c(cc3O)COCC4)CC2)c(=O)n2nc(-c3ccc4c(c3)COC4)nc2n1CC(=O)Nc1ccc(C(F)(F)F)cc1Cl [WO2025049746, Example 440] | 0.046 µM | 0.048 µM
17 | CCc1c(N2CCN(C(=O)c3nc4n(c(=O)c3O)CCOC4)CC2)c(=O)n2nc(C3=CCOCC3)nc2n1CC(=O)Nc1ccc(C(F)(F)F)cc1Cl [WO2025049746, Example 32] | 0.0297 µM | 0.025 µM
18 | CCc1c(N2CCN(C(=O)c3ncnc(C)c3O)CC2)c(=O)n2nc(-c3cnn4c3CCC4)nc2n1CC(=O)Nc1ccc(C(F)(F)F)cc1Cl [WO2025049746, Example 166] | 0.016 µM | 0.014 µM
19 | CCc1c(N2CCN(C(=O)c3ncnc(C)c3O)CC2)c(=O)n2nc(-c3cccc4c3OCO4)nc2n1CC(=O)Nc1ccc(C(F)(F)F)cc1Cl [WO2025049746, Example 16] | 0.0249 µM | 0.0224 µM
20 | CCc1c(N2CCN(C(=O)c3ncnc(C)c3O)CC2)c(=O)n2nc(-c3ccc4c(c3)CCC4(F)F)nc2n1CC(=O)Nc1ccc(C(F)(F)F)cc1Cl [WO2025049746, Example 187] | 0.17 µM | 0.075 µM
21 | CCc1c(N2CCN(C(=O)c3ncnc(C)c3O)CC2)c(=O)n2nc(-c3ccc4c(c3)OCO4)nc2n1CC(=O)Nc1ccc(C(F)(F)F)cc1Cl [WO2025049746, Example 10] | 0.0285 µM | 0.0221 µM
22 | CCc1c(N2CCN(C(=O)c3ncnc(C)c3O)CC2)c(=O)n2nc(-c3ccn4nc(OC(F)F)cc4c3F)nc2n1CC(=O)Nc1ccc(C(F)(F)F)cc1Cl [WO2025049746, Example 334] | 0.03 µM | 0.032 µM
23 | CCc1c(N2CCN(C(=O)c3cc(C(C)C)c(O)cc3O)CC2)c(=O)n2nc(-c3ccc4c(c3)COC4)nc2n1CC(=O)Nc1ccc(C(F)(F)F)cc1Cl [WO2025049746, Example 408] | 1.26 µM | 1.2 µM
24 | CCc1c(N2CCN(C(=O)c3ncnc(C)c3O)CC2)c(=O)n2nc(-c3ccc4occc4c3)nc2n1CC(=O)Nc1ccc(C(F)(F)F)cc1Cl [WO2025049746, Example 283] | 0.033 µM | 0.037 µM
25 | CCc1c(N2CCN(C(=O)c3ncnc(C)c3O)CC2)c(=O)n2nc(-c3ccn4nccc4c3F)nc2n1CC(=O)Nc1ccc(C(F)(F)F)cc1Cl [WO2025049746, Example 241] | 0.018 µM | 0.019 µM
26 | CCc1c(N2CCN(C(=O)c3ncnc(C)c3O)CC2)c(=O)n2nc(-c3cccc4c3COC(C)(C)C4)nc2n1CC(=O)Nc1ccc(C(F)(F)F)cc1Cl [WO2025049746, Example 222] | 0.04 µM | 0.045 µM
27 | CCc1c(N2CCN(C(=O)c3ncnc(C)c3O)CC2)c(=O)n2nc(N3CCCn4nccc43)nc2n1CC(=O)Nc1ccc(C(F)(F)F)cc1Cl [WO2025049746, Example 31] | 0.0452 µM | 0.0289 µM

Now from value to compound:

Row | IC50 [1] | IC50 [2] | Structure (SMILES)
28 | 0.506 µM | 0.419 µM | CCc1c(N2CCN(C(=O)c3ncnc(C)c3O)CC2)c(=O)n2nc(-c3ccc4c(c3)CCOC4)nc2n1CC(=O)Nc1ccc(SC(F)(F)F)cc1 [WO2025049746, Example 393]
29 | 0.125 µM | 0.0667 µM | CCc1c(N2CCN(C(=O)Cn3cncn3)CC2)c(=O)n2nc(C3=CCOCC3)nc2n1CC(=O)Nc1ccc(C(F)(F)F)cc1Cl [WO2025049746, Example 61]
30 | 0.053 µM | 0.0372 µM | CCc1c(N2CCN(C(=O)c3ncnc(C)c3O)CC2)c(=O)n2nc(N(C)C)nc2n1CC(=O)Nc1ccc(C(F)(F)F)cc1Cl [WO2025049746, Example 30]
31 | 0.026 µM | 0.028 µM | CCc1c(N2CCN(C(=O)c3ncnc(C)c3O)CC2)c(=O)n2nc(-c3cc4c(cc3F)[C@H](OC)CC4)nc2n1CC(=O)Nc1ccc(C(F)(F)F)cc1Cl [WO2025049746, Example 245]
32 | 0.055 µM | 0.04 µM | CCc1c(N2CCN(C(=O)c3ncnc(C)c3O)CC2)c(=O)n2nc(-c3ccc4c(c3)OCC4)nc2n1CC(=O)Nc1c(Cl)cc(C(F)(F)F)c2c1CC2 [WO2025049746, Example 381]
33 | 0.0639 µM | 0.0419 µM | CCc1c(N2CCN(C(=O)c3csc4cncnc34)CC2)c(=O)n2nc(C3=CCOCC3)nc2n1CC(=O)Nc1ccc(C(F)(F)F)cc1Cl [WO2025049746, Example 43]
34 | 0.0589 µM | 0.0407 µM | CCc1c(N2CCN(C(=O)c3ccccc3NS(C)(=O)=O)CC2)c(=O)n2nc(N(C)C)nc2n1CC(=O)Nc1ccc(C(F)(F)F)cc1Cl [WO2025049746, Example 82]
35 | 0.019 µM | 0.019 µM | CCc1c(N2CCN(C(=O)c3nc4n(c(=O)c3O)CCCC4)CC2)c(=O)n2nc(-c3ccc4c(c3)COC4)nc2n1CC(=O)Nc1ccc(C(F)(F)F)cc1Cl [WO2025049746, Example 427]
36 | 0.0646 µM | 0.0447 µM | CCc1c(N2CCN(C(=O)c3cn(C)nc3O)CC2)c(=O)n2nc(N(C)C)nc2n1CC(=O)Nc1ccc(C(F)(F)F)cc1Cl [WO2025049746, Example 83]
37 | 0.053 µM | 0.042 µM | CCc1c(N2CCN(C(=O)c3ncnc(C)c3O)CC2)c(=O)n2nc(-c3ccc4c(c3)C(C)(C)OC4)nc2n1CC(=O)Nc1ccc(C(F)(F)F)cc1Cl [WO2025049746, Example 165]
38 | 0.577 µM | 0.102 µM | CCc1c(N2CCN(C(C)=O)CC2)c(=O)n2nc(-c3ncc(O)cn3)nc2n1CC(=O)Nc1ccc(C(F)(F)F)cc1Cl [WO2025049746, Example 434]
39 | 0.029 µM | 0.035 µM | CCCn1cc2cc(-c3nc4n(CC(=O)Nc5ccc(C(F)(F)F)cc5Cl)c(CC)c(N5CCN(C(=O)c6ncnc(C)c6O)CC5)c(=O)n4n3)ccc2n1 [WO2025049746, Example 302]
40 | 0.0273 µM | 0.0246 µM | CCc1c(N2CCN(C(=O)c3ncnc(C)c3O)CC2)c(=O)n2nc(-c3ccc4c(c3)CCO4)nc2n1CC(=O)Nc1ccc(C(F)(F)F)cc1Cl [WO2025049746, Example 11]
41 | 0.036 µM | 0.038 µM | CCc1c(N2CCN(C(=O)c3ncnc(C)c3O)CC2)c(=O)n2nc(-c3ccc4c(c3)CC(C)(C)N4C(C)=O)nc2n1CC(=O)Nc1ccc(C(F)(F)F)cc1Cl [WO2025049746, Example 296]
42 | 0.023 µM | 0.024 µM | CCc1c(N2CCN(C(=O)c3ncnc(C)c3O)CC2)c(=O)n2nc(-c3ccc4[nH]c(=O)ccc4c3)nc2n1CC(=O)Nc1ccc(C(F)(F)F)cc1Cl [WO2025049746, Example 318]
43 | 0.028 µM | 0.028 µM | CCc1c(N2CCN(C(=O)c3ncnc(C)c3O)CC2)c(=O)n2nc(-c3ccc([S+](C)[O-])cc3)nc2n1CC(=O)Nc1ccc(C(F)(F)F)cc1Cl (stereo unspecified) [WO2025049746, Example 333]
